Key:
Assay in all cases: Cell panel screen (CellTiter-Glo)
Format in all cases: cell-based, human
Colo 205 = conditions: Colo 205, 20 micromolar, 72 hrs
Procedure, shortened: (§1)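 Single-dose 20 μM (final), 72 h exposure; DMSO vehicle controls. Luminescence after 10-min reagent incubation → % growth inhibition = (untreated − treated)/(untreated − no-cell background) × 100.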

HCC1569 = HCC1569 (Breast), 20 micromolar, 72 hrs
Procedure, shortened: as §1

T47D = T47D (Breast), 20 micromolar, 72 hrs
Procedure, shortened: as §1

HGC-27 = HGC-27 (Stomach), 20 micromolar, 72 hrs
Procedure, shortened: as §1

CW-2 = CW-2 (Colon), 20 micromolar, 72 hrs
Procedure, shortened: as §1

C3A = C3A (Liver), 20 micromolar, 72 hrs
Procedure, shortened: as §1

NCI-H1623 = NCI-H1623 (Lung), 20 micromolar, 72 hrs
Procedure, shortened: as §1

MSTO-211-H = MSTO-211-H (Lung), 20 micromolar, 72 hrs
Procedure, shortened: as §1

T98G = T98G (Brain), 20 micromolar, 72 hrs
Procedure, shortened: as §1

RL95 = RL95 (Uterus), 20 micromolar, 72 hrs
Procedure, shortened: as §1

ChaGo-K-1 = ChaGo-K-1 (Lung), 20 micromolar, 72 hrs
Procedure, shortened: as §1

NCI-H524 = NCI-H524 (Lung), 20 micromolar, 72 hrs
Procedure, shortened: as §1

HCC1395 = HCC1395 (Breast), 20 micromolar, 72 hrs
Procedure, shortened: as §1

C8166 = C8166 (Leukemia), 20 micromolar, 72 hrs
Procedure, shortened: as §1

J82 = J82 (Urinary bladder), 20 micromolar, 72 hrs
Procedure, shortened: as §1

SW13 = SW13 (Adrenal gland), 20 micromolar, 72 hrs
Procedure, shortened: as §1

NCI-H2347 = NCI-H2347 (Lung), 20 micromolar, 72 hrs
Procedure, shortened: as §1

M059J = M059J (Brain), 20 micromolar, 72 hrs
Procedure, shortened: as §1

A498 = A498 (listed under Lung), 20 micromolar, 72 hrs
Procedure, shortened: as §1

A704 = A704 (Kidney), 20 micromolar, 72 hrs
Procedure, shortened: as §1

NCI-H1694 = NCI-H1694 (Lung), 20 micromolar, 72 hrs
Procedure, shortened: as §1

TCCSUP = TCCSUP (Urinary bladder), 20 micromolar, 72 hrs
Procedure, shortened: as §1

HEC-1-A = HEC-1-A (Uterus), 20 micromolar, 72 hrs
Procedure, shortened: as §1

HPAF-II = HPAF-II (Pancreas), 20 micromolar, 72 hrs
Procedure, shortened: as §1

NCI-H2405 = NCI-H2405 (Lung), 20 micromolar, 72 hrs
Procedure, shortened: as §1

CCF-STTG1 = CCF-STTG1 (Brain), 20 micromolar, 72 hrs
Procedure, shortened: as §1

BT-549 = BT-549 (Breast), 20 micromolar, 72 hrs
Procedure, shortened: as §1

BT-474 = BT-474 (Breast), 20 micromolar, 72 hrs
Procedure, shortened: as §1

HCC1599 = HCC1599 (Breast), 20 micromolar, 72 hrs
Procedure, shortened: as §1

HT-1197 = HT-1197 (Urinary bladder), 20 micromolar, 72 hrs
Procedure, shortened: as §1

Bel-7402 = Bel-7402 (Liver), 20 micromolar, 72 hrs
Procedure, shortened: as §1

HCC1937 = HCC1937 (Breast), 20 micromolar, 72 hrs
Procedure, shortened: as §1

NCI-H1770 = NCI-H1770 (Lung), 20 micromolar, 72 hrs
Procedure, shortened: as §1

NCI-H28 = NCI-H28 (Lung), 20 micromolar, 72 hrs
Procedure, shortened: as §1

Panc 03.27 = Panc 03.27 (Pancreas), 20 micromolar, 72 hrs
Procedure, shortened: as §1

ZR-75-30 = ZR-75-30 (Breast), 20 micromolar, 72 hrs
Procedure, shortened: as §1

Compound	Percent Inhibition (Colo 205) [%]	Percent Inhibition (HCC1569) [%]	Percent Inhibition (T47D) [%]	Percent Inhibition (HGC-27) [%]	Percent Inhibition (CW-2) [%]	Percent Inhibition (C3A) [%]	Percent Inhibition (NCI-H1623) [%]	Percent Inhibition (MSTO-211-H) [%]	Percent Inhibition (T98G) [%]	Percent Inhibition (RL95) [%]	Percent Inhibition (ChaGo-K-1) [%]	Percent Inhibition (NCI-H524) [%]	Percent Inhibition (HCC1395) [%]	Percent Inhibition (C8166) [%]	Percent Inhibition (J82) [%]	Percent Inhibition (SW13) [%]	Percent Inhibition (NCI-H2347) [%]	Percent Inhibition (M059J) [%]	Percent Inhibition (A498) [%]	Percent Inhibition (A704) [%]	further results
COC(=O)C1OC(Oc2cc(O)c3c(c2)OC(c2ccc(O)c(O)c2)CC3=O)C(O)C(O)C1O (stereo not drawn) [gly-5]	-4	-7	2	-2	1	-1	7	-6	0	6	-10	-5	11	-5	-8	-6	1	6	-12	-7	Percent Inhibition (NCI-H1694): -2%; Percent Inhibition (TCCSUP): -11%; Percent Inhibition (HEC-1-A): -16%; Percent Inhibition (HPAF-II): -7%; Percent Inhibition (NCI-H2405): 5%; Percent Inhibition (CCF-STTG1): 8%; Percent Inhibition (BT-549): -12%; Percent Inhibition (BT-474): -15%; Percent Inhibition (HCC1599): -41%; Percent Inhibition (HT-1197): 0%; Percent Inhibition (Bel-7402): -8%; Percent Inhibition (HCC1937): 1%; Percent Inhibition (NCI-H1770): -6%; Percent Inhibition (NCI-H28): -17%; Percent Inhibition (Panc 03.27): 3%; Percent Inhibition (ZR-75-30): 7%
O=c1c2cc(O)c(O)cc2oc2cc(O)cc(O)c12 [Ge-17]	3	16	48	55	25	33	2	74	54	53	22	47	38	62	47	8	4	63	41	1	Percent Inhibition (NCI-H1694): 99%; Percent Inhibition (TCCSUP): 61%; Percent Inhibition (HEC-1-A): 51%; Percent Inhibition (HPAF-II): 13%; Percent Inhibition (NCI-H2405): -5%; Percent Inhibition (CCF-STTG1): 15%; Percent Inhibition (BT-549): 40%; Percent Inhibition (BT-474): -7%; Percent Inhibition (HCC1599): 79%; Percent Inhibition (HT-1197): 16%; Percent Inhibition (Bel-7402): 7%; Percent Inhibition (HCC1937): 65%; Percent Inhibition (NCI-H1770): 72%; Percent Inhibition (NCI-H28): 9%; Percent Inhibition (Panc 03.27): 20%; Percent Inhibition (ZR-75-30): 6%
CC(C)=CCc1c2c(c(O)c3c(=O)c4c(CC=C(C)C)c(O)c(O)cc4oc13)C=CC(C)(C)O2 [bn-4, Bannaxanthone D]	93	92	80	86	97	63	80	94	97	96	93	98	96	96	94	94	53	90	84	94	Percent Inhibition (NCI-H1694): 97%; Percent Inhibition (TCCSUP): 92%; Percent Inhibition (HEC-1-A): 76%; Percent Inhibition (HPAF-II): 73%; Percent Inhibition (NCI-H2405): 92%; Percent Inhibition (CCF-STTG1): 86%; Percent Inhibition (BT-549): 96%; Percent Inhibition (BT-474): 83%; Percent Inhibition (HCC1599): 97%; Percent Inhibition (HT-1197): 89%; Percent Inhibition (Bel-7402): 94%; Percent Inhibition (HCC1937): 89%; Percent Inhibition (NCI-H1770): 75%; Percent Inhibition (NCI-H28): 85%; Percent Inhibition (Panc 03.27): 88%; Percent Inhibition (ZR-75-30): 81%
